# pEC50, pIC50: −log10 of the molar value.
# What was measured:
# HepG2 = test: Cell viability assay (resazurin) in HepG2; type: cell-based; conditions: Homo sapiens, 96 hr exposure
# Method: (§1) HepG2 (ATCC® HB-8065™), hepatocellular carcinoma, A549 (ATCC® CCL-185™), lung epithelial carcinoma, MCF7 (ATCC® HTB-22™), mammary gland epithelial carcinoma, MDA-MB-231 (ATCC® HTB-26™), TNBC, MiaPaCa-2 (ATCC® CRL-1420™) & Panc-1 (ATCC® CRL-1469™), pancreatic epithelial carcinoma, HCT116 (ATCC® CCL-247™), colon epithelial carcinoma and U87MG (ATCC® HTB-14™), brain epithelial carcinoma cell lines respectively were seeded in the respective medium (DMEM, Cat #10569044 with 10% FBS, Cat #16000044; Gibco for HepG2, A549, MCF7, MDA-MB-231, MiaPaCa-2, Panc-1, HCT116 and MEM, Cat #11095080 with 10% FBS for U87MG). Cells were allowed to grow at 37° C. for 24 hr in 5% CO2 (culture conditions) in a Nuaire incubator (humidified). Serially diluted compounds (100 μl) were added to the culture plate 24 hr later and the cultures were further incubated in culture conditions for 96 hr. Experiment was terminated at the completion of 96 hr exposure to the drug by replacing the medium with 100 μl of 1 mM of resazurin (R7017; Sigma) prepared in culture medium and the plates were further incubated in culture conditions for 4 hr. Fluorescence was then measured using a multimodal plate reader (Biotek Synergy Neo) at an excitation wavelength of 535 nm and emission wavelength of 590 nm to obtain relative fluorescence units. Data analysis was done by subtracting the background fluorescence (only medium blank) value from each reading and then normalizing with the vehicle control (DMSO treated cells) to obtain percent survival/proliferation. Percent survival at different doses was used to calculate IC50 by fitting the curve to the “four-parameter variable slope logistic model” using Prism Graph Pad.
# MDA-MB-231 = test: Cell viability assay (resazurin) in MDA-MB-231; type: cell-based; conditions: Homo sapiens, 96 hr exposure, read-out: MDA_MB-231 Cell IC50
# Method: as §1
# LXR alpha = target: T1, LXR alpha (Homo sapiens, UniProt Q13133); test: LXR alpha agonist assay (Lanthascreen TR-FRET); type: biochemical; conditions: LXR alpha-LBD 2.5 nM, read-out: LXR-α EC50
# T1 construct: 5 μL of 4×LXR alpha-LBD was added to each well (final concentration 2.5 nM); purchased Thermofisher PV4655
# T1 sequence (Q13133 209-447 limits assumed): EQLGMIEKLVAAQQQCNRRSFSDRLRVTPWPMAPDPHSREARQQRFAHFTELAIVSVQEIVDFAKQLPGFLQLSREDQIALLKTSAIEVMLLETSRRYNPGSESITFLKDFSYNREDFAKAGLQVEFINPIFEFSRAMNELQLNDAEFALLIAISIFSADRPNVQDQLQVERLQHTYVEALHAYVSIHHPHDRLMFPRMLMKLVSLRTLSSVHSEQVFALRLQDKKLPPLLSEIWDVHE
# Method: EC50 values of compounds against LXR alpha were determined at Integral BioSciences (India) using Lanthascreen TR-FRET (Thermofisher, Cat #PV4655). Assay was performed in a 20 μL final volume in a Black 384-well plate (Corning, Cat #4511). Dose response curve for the compounds were prepared in duplicates with starting concentration at 30 μM and a three-fold titration was performed. The reaction buffer consisted of TR-FRET Coregulator Buffer H. To the compound dilution, 5 μL of 4×LXR alpha-LBD was added to each well (final concentration 2.5 nM). An equal volume (5 μL) containing 4×Fl-D22/Tb-anti GST antibody (final concentration 250 nM/10 nM) was added to initiate the enzyme reaction and the reaction was incubated for 60 min at 22° C. after which the plates were read using BioTek Plate reader for TR-FRET every hour up to 4 hours.
# Analysis was done using the standard curve by non-linear regression, variable slope inhibitor curve fits (Graph-Pad Prism) and EC50's of compounds were determined wherever possible.
# ApoE = test: THP-1 Western blotting assay (ApoE); type: cell-based; conditions: 30 μM; for ApoE normalized with Vehicle treated (DMSO) Control: 18 hour, PMA-differentiated THP-1 cells, densitometry, control = 100; for Fold Difference: ApoE vs DMSO control, THP-1 cells
# Method: THP-1 cells (2×10^6 cells/well) were differentiated with PMA (10 ng/mL) for 24 following which the cells were treated with different concentrations (30 μM and 10 μM) of compound for 18 hour in cell culture conditions (5% CO2, 37° C.). The cells were lysed using 1×RIPA (Cat #9806; Cell Signaling Technologies) buffer with Protease inhibitor (1×) (Cat #P830, Sigma) and sonicated. Whole cell lysate was collected and protein estimation was done using Bradford Reagent. The samples were subjected to SDS PAGE Electrophoresis and the protein bands were transferred onto PVDF membrane using wet transfer. The membrane was further blocked with 5% non-fat dry milk and incubated with primary antibody (ApoE; 1:1000, Cat #D7I9N, ABCA1; 1:1000, Cat #96292S; Cell Signaling Technologies) and secondary antibody (Anti rabbit IgG 1:2000, Cat #7074S, Cell Signaling Technologies). The membrane was then developed using ECL reagent (Ref. 32106, Thermo Fisher Scientific) in a gel doc system. The expression of protein was quantified by densitometry analysis.
# LXR beta = target: T2, LXR beta (Homo sapiens, UniProt P55055); test: LXR beta agonist assay (Lanthascreen TR-FRET); type: biochemical; conditions: LXR beta-LBD 5 nM, read-out: LXR-β EC50
# T2 construct: 5 μL of 4×LXR beta-LBD was added to each well (final concentration 5 nM); purchased Thermofisher PV4658
# T2 sequence (P55055 222-460 limits assumed): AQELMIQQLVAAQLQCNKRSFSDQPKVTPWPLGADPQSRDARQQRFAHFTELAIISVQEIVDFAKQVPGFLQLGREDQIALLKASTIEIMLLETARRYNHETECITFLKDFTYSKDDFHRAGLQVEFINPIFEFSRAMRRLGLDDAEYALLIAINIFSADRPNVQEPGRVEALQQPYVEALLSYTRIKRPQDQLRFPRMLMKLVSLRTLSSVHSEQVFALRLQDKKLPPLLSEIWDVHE
# Procedure, shortened: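 TR-FRET coactivator recruitment: 5 nM LXR beta-LBD with 100 nM Fl-D22 peptide and 10 nM Tb-anti-GST antibody (final) in Coregulator Buffer G, 60 min at 22° C, read hourly up to 4 hours. Duplicate three-fold titrations from 30 μM; EC50 by variable-slope nonlinear regression.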
# A549 = test: Cell viability assay (resazurin) in A549; type: cell-based; conditions: Homo sapiens, 96 hr exposure
# Method: as §1
# THP1 = test: Cell viability assay in THP1; type: cell-based; conditions: Homo sapiens, THP-1
# HCT116 = test: Cell viability assay (resazurin) in HCT116; type: cell-based; conditions: Homo sapiens, HCT-116; 96 hr exposure
# Method: as §1
# mouse splenocytes = test: Mouse splenocytes cytotoxicity assay (CTG); type: cell-based; conditions: Splenocyte, CD3e/CD28 activated Balb/c splenocytes, 72 hr
# Method: IC50 values to look at cytotoxicity of compounds on CD3e/CD28 induced splenocytes, was determined in mouse splenocytes isolated from Balb/c mice. Mouse splenocytes (2.5×10^5 cells/well/160 μl) were activated with Anti-mouse CD3e (0.5 μg/mL, coated overnight at 4° C.; Cat #14-0032-82, eBiosciences) and then incubated with serial dilutions of compounds (3 fold, 8 point dose response starting at 30 μM) and treated with Anti-mouse CD28 (1 μg/mL soluble; Cat #16-0289-81, eBiosciences). Splenocytes were further incubated under cell culture conditions for 72 hr after which assay was terminated by addition of CTG. Plate was incubated for 15 min at 37° C., 5% CO2 and luminescence was measured.
# MCF7 = test: Cell viability assay (resazurin) in MCF7; type: cell-based; conditions: Homo sapiens, 96 hr exposure
# Method: as §1
Structure (SMILES),pIC50 (HepG2),pIC50 (MDA-MB-231),pEC50 (LXR alpha),ApoE normalized with Vehicle treated (DMSO) Control (ApoE),Fold Difference (ApoE),pEC50 (LXR beta),pIC50 (A549),pIC50 (THP1),pIC50 (HCT116),pIC50 (mouse splenocytes),pIC50 (MCF7)
"CN(C)C(=O)c1ccc(NC2CN(C3CCN(C(=O)[C@@](O)(c4ccccc4)C(F)(F)F)CC3)C2)cc1Cl (single isomer, unassigned) [Compound 1.10]",< 4.53,< 4.52,4.58,221.8,2.22,6.85,< 4.52,–,–,–,–
"CC(C)[C@@](O)(C(=O)N1CCC(N2CC(Nc3ccc(C(=O)N(C)C)c(Cl)c3)C2)CC1)C(F)(F)F (single isomer, unassigned) [Compound 1.44]",–,< 4.52,< 4.52,156.5,1.57,4.96,< 4.52,< 4.52,< 4.52,–,–
"CC(C)[C@](O)(C(=O)N1CCC(N2CC(Nc3ccc(C(=O)N(C)C)c(Cl)c3)C2)CC1)C(F)(F)F (single isomer, unassigned) [Compound 1.45]",–,< 4.52,< 4.52,132.1,1.32,5.92,< 4.52,< 4.52,< 4.52,–,–
"O=c1[nH]ccc2cc(N3CCC(C4CCN(S(=O)(=O)c5ccccc5Cl)CC4)CC3)cc(Cl)c12 [Compound 1.16, 8-chloro-6-(1′-((2-chlorophenyl)sulfonyl)-[4,4′-bipiperidin]-1-yl)isoquinolin-1(2H)-one]",–,–,–,–,–,–,–,–,–,4.83,–
"CC(C)(C(=O)N1CCC(C2CCN(c3cc(Cl)c4c(=O)[nH]ccc4c3)CC2)CC1)C(F)(F)F [Compound 1.23, 8-chloro-6-(1′-(3,3,3-trifluoro-2,2-dimethylpropanoyl)-4,4′-bipiperidin-1-yl)isoquinolin-1(2H)-one]",–,–,–,–,–,–,–,–,–,5.82,–
"CN(C)C(=O)c1ccc(NC2CN(C3CCN(C(=O)C(F)(F)c4ccccc4Cl)CC3)C2)cc1Cl [Compound 1.52, 2-chloro-4-(1-(1-(2-(2-chlorophenyl)-2,2-difluoroacetyl)piperidin-4-yl)azetidin-3-ylamino)-N,N-dimethylbenzamide]",< 4.52,< 4.52,–,–,–,5.25,< 4.52,< 4.52,< 4.52,–,< 4.52
"CN(C)C(=O)c1ccc(N[C@H]2CCCN(C3CCN(C(=O)[C@](O)(c4ccccc4)C(F)(F)F)CC3)C2)cc1Cl [Compound 1.53, 2-chloro-N,N-dimethyl-4-((S)-1′-((R)-3,3,3-trifluoro-2-hydroxy-2-phenylpropanoyl)-1,4′-bipiperidin-3-ylamino)benzamide]",< 4.52,< 4.52,–,–,–,4.77,< 4.52,< 4.52,< 4.52,–,< 4.52
"CC(C)C(O)(C(=O)N1CCC2(CC1)CN(C1CCN(c3ccc(C(=O)N(C)C)c(Cl)c3)CC1)C2)C(F)(F)F (stereo not drawn) [Compound 1.54, 2-chloro-4-(4-(7-(2-hydroxy-3-methyl-2-(trifluoromethyl)butanoyl)-2,7-diazaspiro[3.5]nonan-2-yl)piperidin-1-yl)-N,N-dimethylbenzamide]",< 4.52,< 4.52,–,–,–,< 4.52,< 4.52,< 4.52,< 4.52,–,< 4.52
"CN(C)C(=O)c1ccc(N2CCC(N3CC4(CN(C(=O)[C@](O)(c5ccccc5)C(F)(F)F)C4)C3)CC2)cc1Cl [Compound 1.55, 2-chloro-N,N-dimethyl-4-(4-(6-((R)-3,3,3-trifluoro-2-hydroxy-2-phenylpropanoyl)-2,6-diazaspiro[3.3]heptan-2-yl)piperidin-1-yl)benzamide]",< 4.52,< 4.52,–,–,–,4.79,< 4.52,< 4.52,< 4.52,–,< 4.52
"CN(C)C(=O)c1ccc(N[C@@H]2CCN(C3CCN(C(=O)[C@](O)(c4ccccc4)C(F)(F)F)CC3)C2)cc1Cl [Compound 1.57, 2-chloro-N,N-dimethyl-4-((R)-1-(1-((R)-3,3,3-trifluoro-2-hydroxy-2-phenylpropanoyl)piperidin-4-yl)pyrrolidin-3-ylamino)benzamide]",< 4.52,< 4.52,–,–,–,5.55,< 4.52,< 4.52,< 4.52,–,< 4.52

# Source: patent US20220363662A1, “COMPOUNDS AS LXR AGONISTS” (Integral Biosciences Privated Limited, priority 2021, published 2022)
